The source of these data is patent US12544354B2 (RIKEN, priority 2019, dated 2026).

The subject of series [1] is PC12 cells. The series can be described thus: Cell death inhibitory activity test: glutamic acid-induced cell death of PC12 cells (MTS assay). The format is cell-based, rat. To be noted: test compound 1, 3, 10 or 30 μM, added 24 h before glutamic acid; cell viability by MTS 48 h later. The source says: Simultaneously when mitochondria take up calcium, the membrane potential dissipates and mPTP opens. Physiologically, hydrogen peroxide generates in the mitochondrial respiratory chain with opening of mPTP and may further produce a damage to not only mitochondria but also cells. […] Oxidative stress ascribed to hydrogen peroxide may cause cell damage downstream of Ca uptake. In the test, the relationship between mPTP-opening inhibitory effect on cells and cell death was studied by using rat adrenal pheochromocytoma-derived PC12 cells.
The PC12 cells used in the test are derived from rat adrenal pheochromocytoma but are differentiated into sympathetic neurons by a nerve growth factor, and known to cause cell death in a glutamic acid concentration dependent manner (Pereira C F, Oliveira, R, Neuroscience Research, vol. 37(3), p. 227-236, 2000, Oxidative glutamate toxicity involves mitochondrial dysfunction and perturbation of intracellular Ca^2+ homeostasis).
A growth medium (composition: Dulbecco modified MEM culture medium (Gibco 11885-084) containing 100 units of penicillin, 100 μg/mL streptomycin (Gibco 15-140-122), 2.5% inactivated fetal bovine serum (Gibco 10437-028) and 2.5% inactivated horse serum (Gibco 16050-130)) were prepared. PC12 cells were cultured in a culture dish (diameter: 100 mm, Corning 353003) containing 10 ml of the growth medium. PC12 cells cryopreserved were thawed, cultured in the growth medium for at least one week and used in the test. PC12 cells were removed with 0.25% trypsin-1 mM EDTA and subcultured. The following experiments were all carried out at 37° C. by a CO2 incubator in an atmosphere containing 5% CO2. […]
After addition of MTS for CellTiter 96 ® AQueous One Solution Cell Proliferation Assay (Promega G3580)), the microplate was placed in a CO2 incubator and incubation was carried out for 4 hours. Absorbance of individual wells at a wavelength of 490 nm was measured by a spectrophotometer (SpectraMax i3 manufactured by Molecular Devices) with 700 nm used as a reference wavelength. A cell viability was calculated in accordance with the following expression (1) based on the absorbance obtained. Note that, to reduce background non-specific absorption due to excessive cell residue, culture medium and others, the obtained absorbance data were corrected based on the absorbance at a reference wavelength of 700 nm. […] Cell viability (%)=[(Abs−Abm)/(Abc−Abm)]×100 Expression (1) • Abs: Absorbance of sample (well containing cells, glutamic acid-added medium and MTS solution) • Abc: Absorbance of negative control (well containing cells, control medium and MTS solution) • Abm: Absorbance of blank (well containing control medium and MTS solution) (Suppression of Cell Death in the Presence of Test Compound) […]

The subject of series [2] is mitochondrial permeability transition pore (mPTP). Description: mPTP-opening inhibitory activity test (calcium retention capacity, CRC) in mitochondria isolated from mouse brain. The format is biochemical. As to conditions: for mPTP-Opening inhibitory activity at 1.0 μM compound concentration CRC/CRC (DMSO): mitochondria from C57B6J mouse brain, ratio of calcium required for mPTP-opening with compound vs DMSO control. Here is the method:
In this test, inhibitory effects of mPTP in mitochondria isolated from the brain were evaluated.
The mPTP-opening inhibitory activity and efficacy of test compounds are determined by evaluating inhibitory potency thereof against opening of mPTP formed of inner and outer mitochondrial membranes, by in-vitro assay described later.
The animal was humanely euthanized by cervical dislocation, and the brain was excised out. The brain excised out was put in an isolation buffer (280 mM sucrose, 10 mM 3-morpholinopropanesulfonic acid (MOPS), 1 mM ethylenediamine tetraacetic acid dipotassium salt (EDTA-2K), pH 7.2) cooled in ice. The brain was rinsed with the buffer cooled in ice and cut by scissors in the buffer put in a beaker placed on ice. The cut pieces were transferred to a Dounce glass homogenizer. The buffer was exchanged with an isolation buffer containing 12% Percoll, and the cut pieces were homogenized. The cut pieces were homogenized four times by use of a loose pestle and 8 times by use of a tight pestle while vertically rotating. The homogenate was gently overlaid on the layer formed of two portions different in density of Percoll (26%, 40%) in 50 ml-centrifuge tubes, which were then spun by a centrifuge (HITACHI CR22N, rotor R20A2) maintained at 4° C. at 30700×g for 5 minutes. The intermediate layer between the 26% layer and the 40% layer was carefully sucked by use of a 23 G needle, added in an isolation buffer (24 ml) previously cooled in ice, and spun by a centrifuge at 16700×g to allow mitochondria to precipitate as a pellet. The supernatant was gently discarded and the mitochondria was suspended. The amount of the mitochondrial suspension was measured and an aliquot of 20 μl was taken for determining protein concentration. To the mitochondrial suspension, 10 mg/ml BSA ([…]) was added and further an isolation buffer was added up to a volume of 1.2 ml (final concentration 1 mg/mL). The suspension was transferred to 2.0 ml tubes and then centrifuged. The supernatant was discarded and mitochondrial pellets were obtained and stored in ice. The protein amount of mitochondria was measured in accordance with the Bradford method.
To mitochondrial pellets isolated, a measurement buffer (210 mM sucrose, 20 mM potassium chloride, 3 mM glycylglycine and 1 mM potassium dihydrogen phosphate) containing a fluorescent calcium indicator, calcium green-5N (200 nM), was added to as to obtain a concentration of 150 μg/ml. In this manner, a mitochondrial suspension was prepared. Calcium green, which binds to calcium and emits fluorescence, is used as a probe for quantification. When calcium green is added to a mitochondrial suspension, the presence of calcium in the external fluid thereof can be detected. The mitochondrial suspension prepared by suspending mitochondria with the measurement buffer containing 400 nM calcium green was added in wells of a 96 well plate. To predetermined wells, a measurement buffer containing 40 mM glutamic acid, 4 mM malic acid and a double-concentration of test compound was added to prepare a mitochondrial suspension of 100 μl/well (final concentration: 20 mM glutamic acid, 2 mM malic acid). To the mitochondrial suspension in the wells of the 96 well plate, calcium was continuously added dropwise (10 μl of 117 μM CaCl2) was added in a rate of 100 μl/well, final concentration 11.7 μM), and the fluorescence value reflecting the amount of extramitochondrial calcium was determined ([…]). The measurement was carried out by a functional drug screening system, FDSS3000 (Hamamatsu Photonics K. K.). Incubation at 30° C. and shaking of the well plate were carried out by devices equipped in the system. Calcium (CaCl2)) was added at intervals of one minute in accordance with the program of FDSS3000 software.

Series [3] relates to local cerebral ischemia mouse model (pMCA-O). Description: Suppression test for cell death caused by cerebral ischemia: local cerebral ischemia mouse model by permanent middle cerebral artery occlusion (pMCA-O). As to conditions: mice, 100 mg/kg intraperitoneal.
Protocol: In the test, to evaluate the action of test compounds to protect cells from cell death in vivo, a local cerebral ischemia mouse model was prepared by permanent middle cerebral artery occlusion (pMCA-O) and actions of test compounds to protect the cells at a brain injury site one day after occlusion were examined. Note that, for preparing a permanent middle cerebral artery occlusion model, C57BL/6JJmsSlc was used.
As the solvent, dimethyl sulfoxide (DMSO: FUJIFILM Wako Pure Chemical Corporation), polyethylene glycol (PEG400: FUJIFILM Wako Pure Chemical Corporation) and phosphate buffered saline (PBS: FUJIFILM Wako Pure Chemical Corporation) were used. The final concentrations of DMSO, PEG400 and PBS were set to be 15%, 50% and 35%, respectively. […]
One day after cerebral ischemia, the head of each of the mice was removed under anesthesia with 2% isoflurane and the whole brain was carefully excised out. […] These brain sections were stained in physiological saline containing 10 mL of 2% 2,3,5-triphenyl tetrazolium chloride (TTC) (manufactured by Hayashi Pure Chemical Ind., Ltd.) for 30 minutes (Bederson, J B et al., Stroke, 1986, vol. 17, p. 1304-1308, Evaluation of 2,3,5-triphenyltetrazolium chloride as a stain for detection and quantification of experiment a cerebral Infarction in rats). […]
The size of a brain injury site was determined as follows.

For the molecule `CC(C)(C)C(=O)Oc1cccc2c1C(=O)[C@@H]1C(=O)O[C@@]2(C)[C@H]1Cc1c(OC(=O)C(C)(C)C)c(OC(=O)C(C)(C)C)c(C#N)c(OC(=O)C(C)(C)C)c1OC(=O)C(C)(C)C` [Compound I-5], the “protection of PC12 cells from cell death induced by glutamic acid (FIG. 4)” value (from here on “protection of PC12 cells”) in series [1] is given as “stronger protective actions”.
Consider `C[C@@]12OC(=O)[C@@H](C(=O)c3c(O)cccc31)[C@@H]2CC1=C(O)C(=O)C(C#N)=C(O)C1=O` [Compound Ia-4, 2,5-dihydroxy-4-(((1S,4R,10S)-6-hydroxy-1-methyl-3,5-dioxo-1,3,4,5-tetrahydro-1,4-methanobenzo[c]oxepin-10-yl)methyl)-3,6-dioxocyclohexa-1,4-dienocarbonitrile], for which, in series [2], the “mPTP-Opening inhibitory activity at 1.0 μM compound concentration CRC/CRC (DMSO)” value turned out to be 1.59.
The same measure, in the same setting: the same measure for `C[C@@]12OC(=O)[C@@H](C(=O)c3c(O)ccc(Cl)c31)[C@@H]2CC1=C(O)C(=O)C(C(N)=O)=C(O)C1=O` [Compound Ia-1, 4-(((1S,4R,10S)-9-chloro-6-hydroxy-1-methyl-3,5-dioxo-1,3,4,5-tetrahydro-1,4-methanobenzo[c]oxepin-10-yl)methyl)-2,5-dihydro-3,6-dioxohexa-1,4-dienecarboxamide]: 1.66.
Consider `C[C@@]12OC(=O)[C@@H](C(=O)c3c(O)cccc31)[C@@H]2Cc1c(O)c(O)c(C(N)=O)c(O)c1O` [Compound I-2, 2,3,5,6-tetrahydroxy-4-(((1S,4R,10S)-6-hydroxy-1-methyl-3,5-dioxo-1,3,4,5-tetrahydro-1,4-methanobenzo[c]oxepin-10-yl)methyl)benzamide], for which the “mPTP-Opening inhibitory activity at 1.0 μM compound concentration CRC/CRC (DMSO)” value in series [2] is given as 2.92.
Same read-out and setting: the same measure for `C[C@@]12OC(=O)[C@@H](C(=O)c3c(O)ccc(Cl)c31)[C@@H]2Cc1c(O)c(O)c(C(N)=O)c(O)c1O` [Compound Ia-2, 4-(((1S,4R,10S)-9-chloro-6-hydroxy-1-methyl-3,5-dioxo-1,3,4,5-tetrahydro-1,4-methanobenzo[c]oxepin-10-yl)methyl)-2,3,5,6-tetrahydroxybenzamide]: 1.50.
`C[C@@]12OC(=O)[C@@H](C(=O)c3c(O)cccc31)[C@@H]2CC1=C(O)C(=O)C(C(N)=O)=C(O)C1=O` [Compound I-1, 2,5-dihydroxy-4-(((1S,4R,10S)-6-hydroxy-1-methyl-3,5-dioxo-1,3,4,5-tetrahydro-1,4-methanobenzo[c]oxepin-10-yl)methyl)-3,6-dioxocyclohexa-1,4-dienocarboxamide]: the “mPTP-Opening inhibitory activity at 1.0 μM compound concentration CRC/CRC (DMSO)” value in series [2] turned out to be 2.96. Further, in series [2] (dose response of CRC/CRC(DMSO), FIG. 2), the “concentration needed to inhibit mPTP-opening compared with cyclosporine A (FIG. 2)” value is recorded as “at a lower concentration than cyclosporine A”. Besides, the “deaths of animals during the test period” value in series [3] is reported as “not seen”. Besides, in series [3] (one day after cerebral ischemia, total brain injury rate P<0.05, cerebral cortex injury rate P<0.01), the “average brain injury rate, lower than the control group” value is “about 25%”. The “protection of PC12 cells” value in series [1] is recorded as “protected PC12 cells, to no small extent”.
On to `CN(C)c1ccc(O)c2c1C[C@@H](CC1=C(O)C(=O)C(C(N)=O)=C(O)C1=O)CC2=O` [Compound I-3, (S)-4-((8-(dimethylamino)-5-hydroxy-4-oxo-1,2,3,4-tetrahydronaphthalen-2-yl)methyl)-2,5-dihydroxy-3,6-dioxocyclohexa-1,4-dienecarboxamide], for which the “mPTP-Opening inhibitory activity at 1.0 μM compound concentration CRC/CRC (DMSO)” value in series [2] came out at 1.22.
As to `CC(=O)Oc1cccc2c1C(=O)[C@@H]1C(=O)O[C@@]2(C)[C@H]1Cc1c(OC(C)=O)c(OC(C)=O)c(C(N)=O)c(OC(C)=O)c1OC(C)=O` [Compound I-4, 3-(((1S,4R,10S)-6-acetoxy-1-methyl-3,5-dioxo-1,3,4,5-tetrahydro-1,4-methanobenzo[c]oxepin-10-yl)methyl)-6-carbamoyl benzene-1,2,4,5-tetraryl tetraacetate], the “protection of PC12 cells” value in series [1] was “stronger protective actions”.
Same read-out and setting: the same measure for `C[C@@]12OC(=O)[C@@H](C(=O)c3c(OC(=O)c4ccccc4)cccc31)[C@@H]2Cc1c(OC(=O)c2ccccc2)c(OC(=O)c2ccccc2)c(C(N)=O)c(OC(=O)c2ccccc2)c1OC(=O)c1ccccc1` [Compound I-6, 3-(((1S,4R,10S)-6-(benzoyloxy)-1-methyl-3,5-dioxo-1,3,4,5-tetrahydro-1,4-methanobenzo[c]oxepin-10-yl)methyl)-6-carbamoyl benzene-1,2,4,5-tetraryl tetrabenzoate)]: “stronger protective actions”.
As for `C[C@@H]1c2cccc(O)c2C(=O)C[C@@H]1CC1=C(O)C(=O)C(C(N)=O)=C(O)C1=O` [Compound Ia-3, 2,5-dihydroxy-4-(((1S,2S)-5-hydroxy-1-methyl-4-oxo-1,2,3,4-tetrahydronaphthalen-2-yl)methyl)-3,6-dioxocyclohexa-1,4-dienecarboxamide], the “mPTP-Opening inhibitory activity at 1.0 μM compound concentration CRC/CRC (DMSO)” value in series [2] is recorded as 3.00.
